# Results: ChEMBL document CHEMBL1139193, “Application of the Suzuki-Miyaura cross-coupling to increase antimicrobial potency generates promising novel antibacterials” (Bioorg Med Chem Lett, 2007)
# Active and inactive are the calls of the source. The calls are words filed in the database; no cut-off is given here. Where a SMILES comes first, the peptide text is derived from it. [ ]: non-standard residue; d: D form. Bip = N[C@@H](Cc1ccc(-c2ccccc2)cc1)C(=O)O; Phe(4-I) = N[C@@H](Cc1ccc(I)cc1)C(=O)O
# Key:
# Staphylococcus aureus [1] = test: Antibacterial activity against Staphylococcus aureus; type: functional
# Staphylococcus aureus [2] = test: Antibacterial activity against methicillin-resistant Staphylococcus aureus; type: functional
# Streptococcus pyogenes [3] = test: Antibacterial activity against Streptococcus pyogenes; type: functional
# [4] = system: Staphylococcus epidermidis; test: Antibacterial activity against methicillin-resistant Staphylococcus epidermidis; type: functional
# Streptococcus pyogenes [5] = test: Antibacterial activity against Streptococcus pyogenes upto 100 ug/mL; type: functional, organism-based
# Staphylococcus aureus [6] = test: Antibacterial activity against Staphylococcus aureus upto 100 ug/mL; type: functional, organism-based
# Staphylococcus aureus [7] = test: Antibacterial activity against methicillin-resistant Staphylococcus aureus upto 100 ug/mL; type: functional, organism-based
# [8] = Toxicity assessed as hemolysis of human erythrocytes at 500 ug/mL; type: cell-based, Erythrocyte; conditions: read-out: Activity
# [9] = Toxicity assessed as hemolysis of human erythrocytes; type: cell-based, Erythrocyte
SMILES,MIC (Staphylococcus aureus [1]),MIC (Staphylococcus aureus [2]),Activity (Streptococcus pyogenes [3]),MIC [4],further results
N=C(N)NCCC[C@H](NC(=O)[C@H](Cc1ccc(-c2cccc(-c3ccccc3)c2)cc1)NC(=O)[C@@H](N)CCCNC(=N)N)C(N)=O,16 µM,11 µM,inactive,4.8 µM,–
Cc1cc(C)cc(-c2ccc(C[C@H](NC(=O)[C@@H](N)CCCNC(=N)N)C(=O)N[C@@H](CCCNC(=N)N)C(N)=O)cc2)c1,–,–,inactive,9 µM,Activity (Staphylococcus aureus [1]): inactive; Activity (Staphylococcus aureus [2]): inactive
N=C(N)NCCC[C@H](NC(=O)[C@H](Cc1ccc(-c2cccc3ccccc23)cc1)NC(=O)[C@@H](N)CCCNC(=N)N)C(N)=O,–,29 µM,inactive,8.3 µM,Activity (Staphylococcus aureus [1]): inactive
N=C(N)NCCC[C@H](NC(=O)[C@H](Cc1ccc(/C=C/c2ccccc2)cc1)NC(=O)[C@@H](N)CCCNC(=N)N)C(N)=O,–,–,inactive,14 µM,Activity (Staphylococcus aureus [1]): inactive; Activity (Staphylococcus aureus [2]): inactive
CC(C)(C)c1ccc(-c2ccc(C[C@H](NC(=O)[C@@H](N)CCCNC(=N)N)C(=O)N[C@@H](CCCNC(=N)N)C(N)=O)cc2)cc1,11 µM,9.7 µM,–,4.1 µM,MIC (Streptococcus pyogenes [3]): 25 µM
N=C(N)NCCC[C@H](NC(=O)[C@H](Cc1ccc(-c2ccccc2)cc1)NC(=O)[C@@H](N)CCCNC(=N)N)C(N)=O (H-Arg-[Bip]-Arg-NH2),–,–,–,59 µM,Activity (Streptococcus pyogenes [5]): inactive; Activity (Staphylococcus aureus [6]): inactive; Activity (Staphylococcus aureus [7]): inactive
N=C(N)NCCC[C@H](NC(=O)[C@H](Cc1ccc(-c2ccccc2-c2ccccc2)cc1)NC(=O)[C@@H](N)CCCNC(=N)N)C(N)=O,28 µM,24 µM,inactive,6.4 µM,–
N=C(N)NCCC[C@H](NC(=O)[C@H](Cc1ccc(I)cc1)NC(=O)[C@@H](N)CCCNC(=N)N)C(N)=O (H-Arg-[Phe(4-I)]-Arg-NH2),–,–,–,116 µM,Activity (Streptococcus pyogenes [5]): inactive; Activity (Staphylococcus aureus [6]): inactive; Activity (Staphylococcus aureus [7]): inactive
CCCCc1ccc(-c2ccc(C[C@H](NC(=O)[C@@H](N)CCCNC(=N)N)C(=O)N[C@@H](CCCNC(=N)N)C(N)=O)cc2)cc1,9 µM,7 µM,–,4.1 µM,hemolysis at 500 ug/mL [8]: 40%; MIC (Streptococcus pyogenes [3]): 16 µM
N=C(N)NCCC[C@H](NC(=O)[C@H](Cc1ccc(-c2ccc(-c3ccccc3)cc2)cc1)NC(=O)[C@@H](N)CCCNC(=N)N)C(N)=O,9.1 µM,8.3 µM,–,4.8 µM,EC50 [9]: 420 µg/mL; MIC (Streptococcus pyogenes [3]): 20 µM
N=C(N)NCCC[C@H](NC(=O)[C@H](Cc1ccc(-c2ccc3ccccc3c2)cc1)NC(=O)[C@@H](N)CCCNC(=N)N)C(N)=O,25 µM,25 µM,inactive,5 µM,–
